In PubChem BioAssay (NCI):
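96-well plates; 48 h exposure; 5 concentrations. Endpoints by linear interpolation between flanking doses. Not reached: highest tested concentration assigned. GI50: concentration for 50% inhibition of growth. TGI: concentration producing complete growth inhibition.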

What was measured:
Experiment in all cases: NCI tumour cell line growth inhibition, 48 h
[1] = test system: 786-0 renal
[2] = test system: A498 renal
[3] = test system: A549 NSCLC
[4] = test system: ACHN renal
[5] = test system: BT-549 breast
[6] = test system: CAKI-1 renal
[7] = test system: CCRF-CEM leukemia
[8] = test system: COLO 205 colon
[9] = test system: DU-145 prostate
[10] = test system: EKVX NSCLC
[11] = test system: HCC-2998 colon
[12] = test system: HCT-116 colon
[13] = test system: HCT-15 colon
[14] = test system: HL-60(TB) leukemia
[15] = test system: HOP-62 NSCLC
[16] = test system: HOP-92 NSCLC
[17] = test system: HS 578T breast
[18] = test system: HT29 colon
[19] = test system: IGROV1 ovarian
[20] = test system: K-562 leukemia
[21] = test system: KM12 colon
[22] = test system: LOX IMVI melanoma
[23] = test system: M14 melanoma
[24] = test system: MALME-3M melanoma
[25] = test system: MCF7 breast
[26] = test system: MDA-MB-231 breast
[27] = test system: MDA-MB-435
[28] = test system: MOLT-4 leukemia
[29] = test system: NCI-H226 lung
[30] = test system: NCI-H23 lung
[31] = test system: NCI-H460 lung
[32] = test system: NCI-H522 lung
[33] = test system: NCI/ADR-RES ovarian
[34] = test system: OVCAR-3 ovarian
[35] = test system: OVCAR-4 ovarian
[36] = test system: OVCAR-5 ovarian
[37] = test system: OVCAR-8 ovarian
[38] = test system: PC-3 prostate
[39] = test system: RPMI-8226 leukemia
[40] = test system: RXF 393 renal
[41] = test system: SF-268 CNS
[42] = test system: SF-295 CNS
[43] = test system: SF-539 CNS
[44] = test system: SK-MEL-2 melanoma
[45] = test system: SK-MEL-28 melanoma
[46] = test system: SK-MEL-5 melanoma
[47] = test system: SK-OV-3 ovarian
[48] = test system: SN12C renal
[49] = test system: SNB-19 CNS
[50] = test system: SNB-75 CNS
[51] = test system: SR leukemia
[52] = test system: SW-620 colon
[53] = test system: T-47D breast
[54] = test system: TK-10 renal
[55] = test system: U251 CNS
[56] = test system: UACC-257 melanoma
[57] = test system: UACC-62 melanoma
[58] = test system: UO-31 renal

## COc1cc2c(cc1I)-c1c(cc(OC)c(OC)c1OC)CC[C@@H]2NC(C)=O
[1]
  GI50: 434 nM
  TGI: 9260 nM
[2]
  GI50: 231 nM
  TGI: 725 nM
[3]
  GI50: 577 nM
  TGI: > 51900 nM
[4]
  GI50: 614 nM
  TGI: 33800 nM
[5]
  GI50: 691 nM
  TGI: 3160 nM
[6]
  GI50: 522 nM
  TGI: > 47000 nM
[7]
  GI50: 411 nM
  TGI: > 100000 nM
[8]
  GI50: 314 nM
  TGI: 1360 nM
[9]
  GI50: 317 nM
  TGI: 1030 nM
[10]
  GI50: 2550 nM
  TGI: > 100000 nM
[11]
  GI50: 664 nM
  TGI: 6310 nM
[12]
  GI50: 384 nM
  TGI: 7140 nM
[13]
  GI50: 419 nM
  TGI: 16800 nM
[14]
  GI50: 461 nM
[15]
  GI50: 556 nM
  TGI: > 33000 nM
[16]
  GI50: 987 nM
  TGI: 10700 nM
[17]
  GI50: 207 nM
  TGI: 593 nM
[18]
  GI50: 294 nM
  TGI: 2670 nM
[19]
  GI50: 323 nM
  TGI: 5430 nM
[20]
  GI50: 385 nM
  TGI: 17800 nM
[21]
  GI50: 390 nM
  TGI: 5600 nM
[22]
  GI50: 573 nM
  TGI: 18700 nM
[23]
  GI50: 283 nM
  TGI: 2650 nM
[24]
  GI50: 383 nM
  TGI: 32000 nM
[25]
  GI50: 370 nM
  TGI: 20800 nM
[26]
  GI50: 834 nM
  TGI: 7210 nM
[27]
  GI50: 213 nM
  TGI: 550 nM
[28]
  GI50: 672 nM
  TGI: 25800 nM
[29]
  GI50: 1460 nM
  TGI: 22000 nM
[30]
  GI50: 413 nM
  TGI: 5650 nM
[31]
  GI50: 374 nM
  TGI: 3900 nM
[32]
  GI50: 178 nM
  TGI: 689 nM
[33]
  GI50: 985 nM
  TGI: 6180 nM
[34]
  GI50: 232 nM
  TGI: 572 nM
[35]
  GI50: 2240 nM
  TGI: > 100000 nM
[36]
  GI50: 573 nM
  TGI: 39100 nM
[37]
  GI50: 526 nM
  TGI: 14200 nM
[38]
  GI50: 464 nM
  TGI: > 42200 nM
[39]
  GI50: 505 nM
  TGI: > 100000 nM
[40]
  GI50: 211 nM
  TGI: 569 nM
[41]
  GI50: 424 nM
  TGI: 6540 nM
[42]
  GI50: 299 nM
  TGI: 3410 nM
[43]
  GI50: 239 nM
  TGI: 737 nM
[44]
  GI50: 235 nM
  TGI: 858 nM
[45]
  GI50: 344 nM
  TGI: 19100 nM
[46]
  GI50: 290 nM
  TGI: 1100 nM
[47]
  GI50: 416 nM
  TGI: 12600 nM
[48]
  GI50: 589 nM
  TGI: 52000 nM
[49]
  GI50: 485 nM
  TGI: > 41000 nM
[50]
  GI50: 388 nM
  TGI: 32600 nM
[51]
  GI50: 391 nM
  TGI: 34600 nM
[52]
  GI50: 312 nM
  TGI: 42200 nM
[53]
  GI50: 366 nM
  TGI: > 100000 nM
[54]
  GI50: 607 nM
  TGI: 27300 nM
[55]
  GI50: 412 nM
  TGI: 12200 nM
[56]
  GI50: 415 nM
  TGI: 60000 nM
[57]
  GI50: 528 nM
  TGI: 30300 nM
[58]
  GI50: 517 nM
  TGI: > 36800 nM

## COc1ccc(/C=C/C(=O)c2cc3c(N)c(C(=O)Nc4cccc(Cl)c4C)sc3nc2C)cc1
[1]
  GI50: 411 nM
  TGI: > 13600 nM
[2]
  GI50: 174 nM
  TGI: 781 nM
[3]
  GI50: 261 nM
  TGI: > 50000 nM
[4]
  GI50: 330 nM
  TGI: > 50000 nM
[5]
  GI50: 606 nM
  TGI: 4250 nM
[6]
  GI50: 284 nM
  TGI: > 26700 nM
[7]
  GI50: 205 nM
  TGI: > 35300 nM
[8]
  GI50: 169 nM
  TGI: 751 nM
[9]
  GI50: 218 nM
  TGI: > 50000 nM
[10]
  GI50: 384 nM
  TGI: > 50000 nM
[11]
  GI50: 350 nM
  TGI: 2920 nM
[12]
  GI50: 188 nM
[13]
  GI50: 185 nM
  TGI: > 50000 nM
[14]
  GI50: 140 nM
  TGI: 460 nM
[15]
  GI50: 288 nM
  TGI: > 50000 nM
[16]
  GI50: 876 nM
  TGI: 10600 nM
[17]
  GI50: 173 nM
  TGI: > 50000 nM
[18]
  GI50: 170 nM
  TGI: > 50000 nM
[19]
  GI50: 251 nM
  TGI: > 50000 nM
[20]
  GI50: 181 nM
  TGI: > 50000 nM
[21]
  GI50: 214 nM
  TGI: 6820 nM
[22]
  GI50: 243 nM
  TGI: 1250 nM
[23]
  GI50: 146 nM
  TGI: > 50000 nM
[24]
  GI50: 1250 nM
  TGI: > 50000 nM
[25]
  GI50: 196 nM
  TGI: > 50000 nM
[26]
  GI50: 327 nM
  TGI: > 50000 nM
[27]
  GI50: 90.8 nM
  TGI: 258 nM
[28]
  GI50: 312 nM
  TGI: > 50000 nM
[29]
  GI50: 372 nM
  TGI: 4750 nM
[30]
  GI50: 206 nM
[31]
  GI50: 190 nM
  TGI: 5040 nM
[32]
  GI50: 126 nM
[33]
  GI50: 127 nM
  TGI: 381 nM
[34]
  GI50: 160 nM
  TGI: 842 nM
[35]
  GI50: 732 nM
  TGI: > 50000 nM
[36]
  GI50: 350 nM
  TGI: > 50000 nM
[37]
  GI50: 244 nM
  TGI: > 50000 nM
[38]
  GI50: 209 nM
  TGI: > 50000 nM
[39]
  GI50: 187 nM
  TGI: 1490 nM
[40]
  GI50: 102 nM
  TGI: 324 nM
[41]
  GI50: 680 nM
  TGI: > 50000 nM
[42]
  GI50: 295 nM
  TGI: > 50000 nM
[43]
  GI50: 122 nM
  TGI: 324 nM
[44]
  GI50: 389 nM
  TGI: > 50000 nM
[45]
  GI50: 6100 nM
  TGI: > 50000 nM
[46]
  GI50: 192 nM
  TGI: 881 nM
[47]
  GI50: 300 nM
  TGI: > 50000 nM
[48]
  GI50: 362 nM
  TGI: > 50000 nM
[49]
  GI50: 262 nM
  TGI: > 50000 nM
[50]
  GI50: 147 nM
[51]
  GI50: 196 nM
  TGI: > 50000 nM
[52]
  GI50: 219 nM
  TGI: > 50000 nM
[53]
  GI50: 291 nM
  TGI: > 50000 nM
[54]
  GI50: 965 nM
  TGI: > 50000 nM
[55]
  GI50: 201 nM
  TGI: 4360 nM
[56]
  GI50: 6000 nM
  TGI: > 50000 nM
[57]
  GI50: 267 nM
  TGI: > 50000 nM
[58]
  GI50: 406 nM
  TGI: > 25600 nM
